Measured values taken from US20110118348A1, “Methods of stabilizing latanoprost in an aqueous solution” (SANTEN PHARMACEUTICAL CO., LTD., priority 2002, published 2011).
Marks after values point to notes of the source that are not given here.

Assay: Stability Test of Latanoprost 1: residual ratio of latanoprost in phosphate buffer at each pH after storage at 60° C. or 70° C. (HPLC)
Format: physicochemical
Conditions: for Residual ratio (%): pH 8.0, phosphate buffer
Procedure: 1) Latanoprost (0.0025 g) was weighed out in a 50 ml-beaker, a phosphate buffer (50 ml) having each pH (4.0, 5.0, 5.5, 6.0, 6.25, 6.5, 6.7 or 8.0) prepared in advance was added to the beaker, and the mixture was stirred with a magnetic stirrer. The mixture was stirred while warming it in a water bath at about 80° C. for about 30 minutes to dissolve latanoprost. 2) It was confirmed that latanoprost was dissolved, and pH was confirmed. 3) A glass ampoule was charged with each prepared solution (2.5 ml) and sealed by melting it. 4) It was stored at 60° C. or 70° C. 5) Sampling was carried out with time until 28th day after starting storage, latanoprost contents were measured by high performance liquid chromatography, and residual ratios were calculated. Samples having residual ratios of 95% or higher after storage at 60° C. for 28 days and residual ratios of 90% or higher after storage at 70° C. for 28 days were judged to be stable.

For `CC(C)OC(=O)CCC/C=C\C[C@@H]1[C@@H](CC[C@@H](O)CCc2ccccc2)[C@H](O)C[C@@H]1O` [latanoprost, isopropyl (Z)-7[(1R,2R,3R,5S)3,5-dihydroxy-2-[(3R)-3-hydroxy-5-phenylpentyl]cyclopentyl]-5-heptanoate], the “Residual ratio (%) after storage for 28 days” value (60° C., pH 4.0, phosphate buffer) was 87.4%, the “Residual ratio (%) after storage for 28 days” value (60° C., pH 5.0, phosphate buffer) was 98.9% and the “Residual ratio (%) after storage for 28 days” value (60° C., pH 5.5, phosphate buffer) was 98.0%. For the same compound, the “Residual ratio (%) after storage for 28 days” value (60° C., pH 6.0, phosphate buffer) was 98.9%, the “Residual ratio (%) after storage for 28 days” value (60° C., pH 6.25, phosphate buffer) was 95.0% and the “Residual ratio (%) after storage for 28 days” value (60° C., pH 6.5, phosphate buffer) was 92.4%. For the same compound, the “Residual ratio (%) after storage for 28 days” value (60° C., pH 6.7, phosphate buffer) was 93.4%, the “Residual ratio (%)” value (60° C., value on 21st day) was 30.0* % and the “Residual ratio (%) after storage for 28 days” value (70° C., pH 4.0, phosphate buffer) was 76.7%. For the same compound, the “Residual ratio (%) after storage for 28 days” value (70° C., pH 5.0, phosphate buffer) was 94.9%, the “Residual ratio (%) after storage for 28 days” value (70° C., pH 5.5, phosphate buffer) was 94.6% and the “Residual ratio (%) after storage for 28 days” value (70° C., pH 6.0, phosphate buffer) was 93.1%. For the same compound, the “Residual ratio (%) after storage for 28 days” value (70° C., pH 6.25, phosphate buffer) was 92.0%, the “Residual ratio (%) after storage for 28 days” value (70° C., pH 6.5, phosphate buffer) was 82.7% and the “Residual ratio (%)” value (70° C., value on 12th day) was 14.1** %.
